Assays:
[1] = Difference of pharmacokinetic parameters between intravenous microdialysis and standard plasma sampling; conditions: intravenous microdialysis minus standard plasma, mean (95% confidence interval)
Procedure: (§1) For the data analysis, the microdialysate concentrations were attributed to the midpoint of the sampling interval. The pharmacokinetic parameters and statistical analysis were performed using STATA (v. 17.0 StataCorp, College Station, TX, USA) for continuous intravenous microdialysis samples and standard plasma samples separately. […] AUC was calculated using the linear-up/log-down method. Cmax was calculated as the maximum of all the concentrations and Tmax as the time to reach Cmax. For comparison between the two sampling methods, the difference of pharmakokinetic parameters between methods is calculated including 95% confidence intervals. The Kenward–Roger approximation method was used due to small sample size, as a correction for degrees of freedom. Model assumptions were tested by visual diagnosis of residuals, fitted values, and estimates of random effects.

[2] = Pharmacokinetics from standard plasma sampling (central venous catheter), free unbound concentrations; conditions: vancomycin 1 g iv infused over 100 min, co-administered with meropenem, eight female pigs, standard plasma samples, mean (95% confidence interval)
Source text: (§2) Eight female pigs, Danish Landrace Breed, weight 78–82 kg, were included. […] Intravenous microdialysis catheters were inserted into the left subclavian vein, guided by ultrasound and using a peripheral venous introducer. On the opposite side of the throat, a central venous catheter was placed for standard plasma sampling (Figure 3). At the end of the sampling period, all pigs were euthanized by intravenous injection of pentobarbital.
After placement, the intravenous microdialysis catheters were perfused with 0.9% NaCl followed by a 20 min tissue equilibrium period. […] Dialysates were collected during an 8 h sampling period every 30 min from time 0 to 240 min and every 60 min from time 240 to 480 min, resulting in 12 dialysates per pig. Plasma samples, each containing approximately 4 mL, were collected from the central venous catheter in the middle of every dialysate sampling interval to EDTA tubes. […] After a 30 min equilibrium period, one calibration sample was collected over a 40 min interval. Collected plasma samples were stored at 5 °C for a maximum of 6 h before being centrifuged at 3000× g for 10 min. Dialysates and plasma samples were frozen at −80 °C until analysis.
The principle of this analysis is that (in competition) the free drug competes with a drug–enzyme conjugate for the antibody (File S1). […] Meropenem was quantified using ultra-high-performance liquid chromatography (UHPLC). Quantification was performed after ultrafiltration of the plasma samples using a centrifree ultrafiltration device with a nominal molecular weight limit of 30 kDa (Millipore). Some 5 µL of the filtrate was prepared for analysis.
as §1

[3] = Pharmacokinetics from continuous intravenous microdialysis sampling (subclavian vein), free unbound concentrations; conditions: vancomycin 1 g iv infused over 100 min, co-administered with meropenem, eight female pigs, mean (95% confidence interval)
Procedure: In the microdialysis system, complete equilibrium will not occur across the semipermeable membrane, due to the constant flow. As such, the obtained concentration in the dialysates represents a fraction of the actual concentration. This fraction is referred to as the relative recovery, and it is essential to calculate to determine the absolute concentration of an analyte. In this study, calibration using retrodialysis by drug was used. Relative recovery was calculated by the following equation:(1) Relative recovery %=100 ·1−Cdialysate/Cperfusate
(2) Cplasma=100 ·Cdialysate/Relative recovery %
All the microdialysis equipment was acquired from M Dialysis AB (Stockholm, Sweden), and consisted of 67 Intravenous Microdialysis Catheters with a membrane length of 30 mm, a 20 kD cut-off, and 107 Microdialysis pumps set at a flow rate of 1 μL/min.
as §2
After placement, the intravenous microdialysis catheters were perfused with 0.9% NaCl followed by a 20 min tissue equilibrium period. […]
A 3 µL sample volume was introduced into the UHPLC system with a C18 column and further analyzed with mass spectrometry. […]
For the data analysis, the microdialysate concentrations were attributed to the midpoint of the sampling interval. […] AUC was calculated using the linear-up/log-down method. Cmax was calculated as the maximum of all the concentrations and Tmax as the time to reach Cmax. For comparison between the two sampling methods, the difference of pharmakokinetic parameters between methods is calculated including 95% confidence intervals. […]

C[C@@H](O)[C@H]1C(=O)N2C(C(=O)O)=C(S[C@@H]3CN[C@H](C(=O)N(C)C)C3)[C@H](C)[C@H]12 [Meropenem, meropenem]
Tmax, difference between methods ([1]; meropenem): 5 (−8; 18) min

CN[C@H](CC(C)C)C(=O)N[C@H]1C(=O)N[C@@H](CC(N)=O)C(=O)N[C@H]2C(=O)N[C@H]3C(=O)N[C@H](C(=O)N[C@H](C(=O)O)c4cc(O)cc(O)c4-c4cc3ccc4O)[C@H](O)c3ccc(c(Cl)c3)Oc3cc2cc(c3O[C@@H]2O[C@H](CO)[C@@H](O)[C@H](O)[C@H]2O[C@H]2C[C@](C)(N)[C@H](O)[C@H](C)O2)Oc2ccc(cc2Cl)[C@H]1O [Vancomycin, vancomycin]
Cmax ([2]; homogeneous enzyme immunoassay): 36 (24; 49) µg/mL
AUC0–8h ([2]; homogeneous enzyme immunoassay, non-compartmental): 7014 (5779; 8249) min µg/mL
T1/2 [2]: 197 (124; 270) min
Tmax [2]: 85 (72; 98) min
Tmax ([3]; intravenous microdialysis samples, concentrations attributed to midpoint of sampling interval): 110 (97; 123) min
T1/2 ([3]; intravenous microdialysis samples): 242 (162; 322) min
Cmax ([3]; intravenous microdialysis, 1 μL/min, UHPLC-MS/MS, recovery-corrected): 14 (2; 26) µg/mL
T1/2, difference between methods ([1]; vancomycin): 45 (−55; 146) min
Tmax, difference between methods ([1]; vancomycin): 25 (4.3; 46) min

Reference: PMC10135263 (Antibiotics, 2023)
